Laboratory results from article PMC11945486, “TAS1R2/TAS1R3 Single-Nucleotide Polymorphisms Affect Sweet Taste Receptor Activation by Sweeteners: The SWEET Project” (Nutrients, 2025).
Like-named read-outs stand apart in the source and are kept apart here. No end group written: not given here.

T1: human TAS1R2-WT/TAS1R3-F514L (Homo sapiens, UniProt Q7RTX0+Q8TE23, F514L)
T1 construct: expressed in transfected cells; host or cells: HEK293T stably expressing Gα16gust44
T1 sequence (Q8TE23 20-839): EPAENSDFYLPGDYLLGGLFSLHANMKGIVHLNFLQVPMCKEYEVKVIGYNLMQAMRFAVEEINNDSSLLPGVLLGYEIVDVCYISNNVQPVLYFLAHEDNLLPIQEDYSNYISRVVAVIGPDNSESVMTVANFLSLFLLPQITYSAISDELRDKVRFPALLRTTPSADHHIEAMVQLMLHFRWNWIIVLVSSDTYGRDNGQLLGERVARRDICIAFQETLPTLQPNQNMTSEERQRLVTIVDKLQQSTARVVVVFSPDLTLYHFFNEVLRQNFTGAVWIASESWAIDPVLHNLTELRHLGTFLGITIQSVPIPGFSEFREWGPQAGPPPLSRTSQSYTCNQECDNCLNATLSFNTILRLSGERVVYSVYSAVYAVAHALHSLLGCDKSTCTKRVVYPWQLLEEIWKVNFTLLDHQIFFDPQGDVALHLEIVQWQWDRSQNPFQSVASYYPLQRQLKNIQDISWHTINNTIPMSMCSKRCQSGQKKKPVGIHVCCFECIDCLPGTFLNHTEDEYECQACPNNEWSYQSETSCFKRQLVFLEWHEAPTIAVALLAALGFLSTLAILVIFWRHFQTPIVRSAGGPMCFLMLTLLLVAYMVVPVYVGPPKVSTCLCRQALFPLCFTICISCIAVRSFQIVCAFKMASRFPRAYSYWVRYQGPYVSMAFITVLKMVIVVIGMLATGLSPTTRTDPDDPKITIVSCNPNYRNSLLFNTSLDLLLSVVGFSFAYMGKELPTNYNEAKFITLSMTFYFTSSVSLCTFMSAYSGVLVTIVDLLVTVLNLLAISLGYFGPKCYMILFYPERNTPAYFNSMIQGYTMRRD
T1 sequence (Q7RTX0 21-852 F514L): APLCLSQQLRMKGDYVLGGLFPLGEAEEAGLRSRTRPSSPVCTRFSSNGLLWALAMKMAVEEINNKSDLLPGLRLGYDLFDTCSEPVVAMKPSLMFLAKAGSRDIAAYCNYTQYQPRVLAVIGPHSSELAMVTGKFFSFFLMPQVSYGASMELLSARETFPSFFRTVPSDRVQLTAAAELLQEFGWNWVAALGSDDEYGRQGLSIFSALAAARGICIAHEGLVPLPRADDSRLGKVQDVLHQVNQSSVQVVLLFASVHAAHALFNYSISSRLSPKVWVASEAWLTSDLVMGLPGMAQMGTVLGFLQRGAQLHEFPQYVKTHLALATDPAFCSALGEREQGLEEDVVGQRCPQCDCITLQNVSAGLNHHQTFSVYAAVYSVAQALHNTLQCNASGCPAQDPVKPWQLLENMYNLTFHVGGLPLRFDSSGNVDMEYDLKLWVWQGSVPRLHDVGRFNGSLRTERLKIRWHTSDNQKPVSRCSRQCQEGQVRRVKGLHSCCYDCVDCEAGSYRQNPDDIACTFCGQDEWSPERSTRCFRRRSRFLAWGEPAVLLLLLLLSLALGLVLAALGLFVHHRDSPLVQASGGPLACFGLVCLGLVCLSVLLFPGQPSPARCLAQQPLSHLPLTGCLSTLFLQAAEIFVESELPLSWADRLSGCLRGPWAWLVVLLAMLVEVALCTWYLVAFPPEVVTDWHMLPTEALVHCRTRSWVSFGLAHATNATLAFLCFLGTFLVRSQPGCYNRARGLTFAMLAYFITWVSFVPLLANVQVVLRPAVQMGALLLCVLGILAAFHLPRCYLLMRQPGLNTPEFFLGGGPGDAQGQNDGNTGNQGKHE


Biological target: T1, human TAS1R2-WT/TAS1R3-F514L
Assay: Calcium mobilisation assay, TAS1R2-WT with TAS1R3 variant F514L
Type: cell-based
Details: for Max ΔF/F0: maximal signal amplitude
Description: The coding sequences for TAS1R2 and TAS1R3 were commercially synthesised, and the human codon was optimised for expression in human cells. The coding sequences of human TAS1R2 and TAS1R3 were subcloned and inserted into the mammalian expression vectors pcDNA6/myc-HisA and pcDNA4/myc-HisA (Invitrogen; Thermo Fisher Scientific; Illkirch, France) between the EcoRI and NotI restriction sites, generating the plasmids pcDNA6-TAS1R2 and pcDNA4-TAS1R3, respectively. To increase protein expression in mammalian cells, an upstream start codon was used, which was a sequence called MAX, corresponding to the QBI SP163 element also described in pcDNA4-HisMax (Invitrogen; Thermo Fisher Scientific; Illkirch, France). To measure the expression level of the receptor by immunohistochemistry, we used the FLAG sequence ([…]) in the C-terminal position, which encodes the FLAG tag epitope. SNP variants of TAS1R2 and TAS1R3 were constructed based on […], respectively, using site-directed mutagenesis (Genewiz; Leipzig, Germany).
The HEK293T cells were kindly provided by Jay P. Slack (Givaudan Flavors Corporation; Cincinnati, OH, USA). HEK293T cells stably transfected with Gα16gust44 [43, 67] were seeded in poly-D-lysine-coated clear-bottom black 96-well plates (0.35 × 10^5 cells/well) in high-glucose DMEM supplemented with 2 mM GlutaMAX, 10% dialysed foetal bovine serum with penicillin/streptomycin and G418 (400 μg/mL) at 37 °C and 6.3% CO2 in a humidified atmosphere as previously reported. […] As a negative control, HEK293T cells were mock-transfected with the empty expression vector. After a further 24 h of incubation, the HEK293T cells were washed with C1 buffer (130 mM NaCl, 5 mM KCl, 10 mM HEPES pH 7.4 and 2 mM CaCl2). The 96-well plates containing the cells were then stimulated with sweet-tasting compounds. […] Different concentration ranges were tested depending on the sweet compound injected. The Ca^2+ changes were expressed as fractional changes in fluorescent light intensity: ΔF/F = (F − F0)/F0, where F was the fluorescent light intensity at each point, and F0 was the value of emitted fluorescent light prior to stimulus application. To calculate dose–response relationships, the changes in fluorescence upon stimulus application were averaged, mock-subtracted and baseline-corrected. The dose–response data obtained were adjusted using a 4-parameter logistic equation. The half-maximal effective concentrations (EC50 values) and maximal signal amplitudes were calculated using SigmaPlot software (version 15.0) (Systat Software; San Jose, CA, USA).
For in vitro calcium mobilisation assay performed on hTAS1R2-SNPs, hTAS1R3-SNPs and mTAS1R3-I60T, 6 to 7 concentrations were tested for each sweet compound, plus buffer alone. All concentration–receptor combinations were measured in duplicate, and each experiment was repeated at least 4 times (8 wells/concentration). Results were expressed for each concentration as ΔF/F mean ± SEM and represented as dose–response curves.

Molecule	R1 = Variant EC50/WT EC50	Max ΔF/F0	EC50 (read-out: EC50) [µM]	EC50 (brazzein) [µg/mL]
CC1=CC(=O)NS(=O)(=O)O1 [Acesulfame K, acesulfame K]	0.7	0.14 ± 0.01	442 ± 24	
O=S(=O)(O)NC1CCCCC1 [Cyclamate, cyclamate]			1250 ± 30	
C[C@H](CC[C@@H](O[C@@H]1O[C@H](CO[C@@H]2O[C@H](CO)[C@@H](O)[C@H](O)[C@H]2O)[C@@H](O)[C@H](O)[C@H]1O[C@@H]1O[C@H](CO)[C@@H](O)[C@H](O)[C@H]1O)C(C)(C)O)[C@H]1CC[C@@]2(C)[C@@H]3CC=C4[C@@H](CC[C@H](O[C@@H]5O[C@H](CO[C@@H]6O[C@H](CO)[C@@H](O)[C@H](O)[C@H]6O)[C@@H](O)[C@H](O)[C@H]5O)C4(C)C)[C@]3(C)[C@H](O)C[C@]12C [Mogroside V, mogroside V]	1.4	0.79 ± 0.02	44.7 ± 2.8	
COc1ccc(CCC(=O)c2c(O)cc(O[C@@H]3O[C@H](CO)[C@@H](O)[C@H](O)[C@H]3O[C@@H]3O[C@@H](C)[C@H](O)[C@@H](O)[C@H]3O)cc2O)cc1O [NHDC, neohesperidin dihydrochalcone]	0.8	1.21 ± 0.08	37.9 ± 8.4	
COC(=O)[C@H](Cc1ccccc1)NC(=O)[C@H](CC(=O)O)NCCC(C)(C)C [Neotame]	1.0	0.45 ± 0.01	1.23 ± 0.06	

Other lines, results leading:

R1 = Variant EC50/WT EC50	Max ΔF/F0	EC50 (read-out: EC50) [µM]	EC50 (brazzein) [µg/mL]	Molecule
1.0	1.40 ± 0.24	13.9 ± 7.3		C=C(C)[C@@H]1CC=C(/C=N/O)CC1 [Perillartine, perillartine]
0.8	0.64 ± 0.02	32.1 ± 2.5		C=C1C[C@@]23CC[C@H]4[C@@](C)(CCC[C@@]4(C)C(=O)O[C@@H]4O[C@H](CO)[C@@H](O)[C@H](O[C@@H]5O[C@H](CO)[C@@H](O)[C@H](O)[C@H]5O)[C@H]4O[C@@H]4O[C@H](CO)[C@@H](O)[C@H](O)[C@H]4O)[C@@H]2CC[C@]1(O[C@@H]1O[C@H](CO)[C@@H](O)[C@H](O[C@@H]2O[C@H](CO)[C@@H](O)[C@H](O)[C@H]2O)[C@H]1O[C@@H]1O[C@H](CO)[C@@H](O)[C@H](O)[C@H]1O)C3 [Rebaudioside M, rebaudioside M]
1.3	0.49 ± 0.01	141 ± 3		OC[C@H]1O[C@H](O[C@]2(CCl)O[C@H](CCl)[C@@H](O)[C@@H]2O)[C@H](O)[C@@H](O)[C@H]1Cl [Sucralose]
0.4	1.07 ± 0.04		44.4 ± 6.4	brazzein (QDKCKKVYENYPVSKCQLANQCNYDCKLDKHARSGECFYDEKRNLQCICDYCEY; ends and bridges not checked; cysteine pairing not given here; UniProt P56552 1-54, looked up) [sweet-tasting protein obtained by recombinant production using the yeast Pichia pastoris]
0.9	0.72 ± 0.04			thaumatin
		9.8 ± 1		thaumatin (protein, Eight disulfides, sweet-tasting plant protein, E957) ATFEIVNRCSYTVWAAASKGDAALDAGGRQLNSGESWTINVEPGTKGGKIWARTDCYFDDSGSGICKTGDCGGLLRCKRFGRPPTTLAEFSLNQYGKDYIDISNIKGFNVPMDFSPTTRGCRGVRCAADIVGQCPAKLKAPGGGCNDACTVFQTSEYCCTTGKCGPTEYSRFFKRLCPDAFSYVLDKPTTVTCPGSSNYRVTFCPTA
